Experimental data as given in ChEMBL document CHEMBL3885861, “Open TG-GATES”.

Species: Rattus norvegicus
Experiment: Open TG-GATES - Regimen: Daily Repeat
Type: toxicity, organism-based, Sprague-Dawley
Design: regimen Daily Repeat, gender Male, age 6 weeks
Details: in vivo, po, 300 mg/kg, […], route gavage, dose level Middle; for KIDNEY_L / KIDNEY_R / KIDNEY_TOTAL: tissue Kidney; for LIVER: tissue Liver; for A/G / ALP / ALT / AST / BUN / CRE / Ca / Cl / DBIL / GLC / IP / K / LDH / Na / PL / RALB / TBIL / TC / TG / TP / gamma-GTP: tissue Plasma

Work on COc1ccc(Cl)cc1C(=O)NCCc1ccc(S(=O)(=O)NC(=O)NC2CCCCC2)cc1 [GLYBURIDE] yielded a Lym (tissue Blood, time 28 day) of 81.6%, an MCH (tissue Blood, time 28 day) of 19.6 pg and an MCHC (tissue Blood, time 28 day) of 34.9%. The MCV (tissue Blood, time 28 day) was 56.1 fL, the Mono (tissue Blood, time 28 day) was 2.2% and the Neu (tissue Blood, time 28 day) was 14.8%. The PT (tissue Blood, time 28 day) was 12.5 s, the Plat (tissue Blood, time 28 day) was 110.1 x10_4/uL and the RBC (tissue Blood, time 28 day) was 762.8 x10_4/ul. It also gave a Ret (tissue Blood, time 28 day) of 2.6%, a WBC (tissue Blood, time 28 day) of 109.6 x10_2/uL and a KIDNEY_L (time 7 day) of 1.1 g. It also gave a KIDNEY_R (time 7 day) of 1.1 g, a KIDNEY_TOTAL (time 7 day) of 2.2 g and a KIDNEY_L (time 14 day) of 1.2 g. It also gave a KIDNEY_R (time 14 day) of 1.2 g, a KIDNEY_TOTAL (time 14 day) of 2.5 g and a KIDNEY_L (time 28 day) of 1.4 g. The KIDNEY_R (time 28 day) was 1.3 g, the KIDNEY_TOTAL (time 28 day) was 2.7 g and the LIVER (time 7 day) was 12.1 g. It also gave an LIVER (time 14 day) of 14 g, an LIVER (time 28 day) of 16.8 g and an A/G (time 7 day) of 1.5. For the same compound, the ALP (time 7 day) was 861.6 IU/L, the ALT (time 7 day) was 33.4 IU/L and the AST (time 7 day) was 59.2 IU/L. It also gave a BUN (time 7 day) of 14.6 mg/dL, a CRE (time 7 day) of 0.4 mg/dL and a Ca (time 7 day) of 10.8 mg/dL. The Cl (time 7 day) was 102.4 meq/L, the DBIL (time 7 day) was 0.084 mg/dL and the GLC (time 7 day) was 195.6 mg/dL. The IP (time 7 day) was 6.8 mg/dL, the K (time 7 day) was 3.8 meq/L and the LDH (time 7 day) was 163.8 IU/L. It also gave a Na (time 7 day) of 140.6 meq/L, a PL (time 7 day) of 140.6 mg/dL and an RALB (time 7 day) of 3.3 g/dL. The TBIL (time 7 day) was 0.1 mg/dL, the TC (time 7 day) was 67.8 mg/dL and the TG (time 7 day) was 87.6 mg/dL. For the same compound, the TP (time 7 day) was 5.6 g/dL, the gamma-GTP (time 7 day) was 1.2 IU/L and the A/G (time 14 day) was 1.4. The ALP (time 14 day) was 818.6 IU/L, the ALT (time 14 day) was 40 IU/L and the AST (time 14 day) was 64.2 IU/L. The BUN (time 14 day) was 15.8 mg/dL, the CRE (time 14 day) was 0.5 mg/dL and the Ca (time 14 day) was 10.7 mg/dL. The Cl (time 14 day) was 102.4 meq/L, the DBIL (time 14 day) was 0.1 mg/dL and the GLC (time 14 day) was 178 mg/dL. For the same compound, the IP (time 14 day) was 6.8 mg/dL, the K (time 14 day) was 4 meq/L and the LDH (time 14 day) was 162.8 IU/L. For the same compound, the Na (time 14 day) was 140.4 meq/L, the PL (time 14 day) was 166.8 mg/dL and the RALB (time 14 day) was 3.5 g/dL. For the same compound, the TBIL (time 14 day) was 0.2 mg/dL, the TC (time 14 day) was 80.8 mg/dL and the TG (time 14 day) was 125 mg/dL. It also gave a TP (time 14 day) of 6 g/dL, a gamma-GTP (time 14 day) of 1.6 IU/L and an A/G (time 28 day) of 1.3. For the same compound, the ALP (time 28 day) was 681.2 IU/L, the ALT (time 28 day) was 35.4 IU/L and the AST (time 28 day) was 62.2 IU/L. The BUN (time 28 day) was 15.4 mg/dL, the CRE (time 28 day) was 0.5 mg/dL and the Ca (time 28 day) was 10.5 mg/dL. The Cl (time 28 day) was 104.4 meq/L, the DBIL (time 28 day) was 0.1 mg/dL and the GLC (time 28 day) was 213 mg/dL. For the same compound, the IP (time 28 day) was 6.2 mg/dL, the K (time 28 day) was 3.7 meq/L and the LDH (time 28 day) was 150.8 IU/L. For the same compound, the Na (time 28 day) was 142 meq/L, the PL (time 28 day) was 140.6 mg/dL and the RALB (time 28 day) was 3.4 g/dL. For the same compound, the TBIL (time 28 day) was 0.2 mg/dL, the TC (time 28 day) was 67.2 mg/dL and the TG (time 28 day) was 114.4 mg/dL. For the same compound, the TP (time 28 day) was 5.9 g/dL and the gamma-GTP (time 28 day) was 0.6 IU/L.
